In patent publication US20250270200A1, “CTPS1 INHIBITORS AND USES THEREOF” (Nimbus Clotho, Inc., priority 2022, published 2025):

Target: T1, human CTPS1 (Homo sapiens, UniProt P17812)
T1 sequence (P17812 1-591): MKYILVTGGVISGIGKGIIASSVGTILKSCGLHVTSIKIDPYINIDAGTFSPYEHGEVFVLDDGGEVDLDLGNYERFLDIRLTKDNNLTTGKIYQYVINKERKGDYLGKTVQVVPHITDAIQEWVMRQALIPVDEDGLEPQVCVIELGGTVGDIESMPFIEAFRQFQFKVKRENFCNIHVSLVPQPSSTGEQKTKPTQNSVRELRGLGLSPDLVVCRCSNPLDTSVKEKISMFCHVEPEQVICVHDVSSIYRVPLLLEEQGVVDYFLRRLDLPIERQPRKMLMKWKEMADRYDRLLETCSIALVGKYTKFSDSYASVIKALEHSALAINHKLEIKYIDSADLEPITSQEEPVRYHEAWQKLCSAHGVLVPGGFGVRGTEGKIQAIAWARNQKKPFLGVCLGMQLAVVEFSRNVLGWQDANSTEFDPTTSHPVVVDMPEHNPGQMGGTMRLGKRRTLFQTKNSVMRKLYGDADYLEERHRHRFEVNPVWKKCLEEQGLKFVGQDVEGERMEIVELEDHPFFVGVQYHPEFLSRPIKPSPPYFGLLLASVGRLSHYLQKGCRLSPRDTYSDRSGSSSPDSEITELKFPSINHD
Experiment: ADP-Glo assay, human CTPS1 enzyme inhibition
Format: biochemical
Settings: wild-type human CTPS1, 25 nM enzyme; ADP-Glo; read-out: ADP-Glo_WT_hCTPS1—25 nM_IC50 (IC50)
Outline: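 ADP-Glo luminescence quantified ADP produced by 25 nM purified human CTPS1 (full length, FLAG-His tagged) at 25° C within the linear phase. Final substrates: ATP 120 μM, UTP 160 μM, GTP 60 μM, L-glutamine 100 μM; 1% DMSO; pH 7.4 HEPES buffer with Mg2+, KCl, DTT. Compound pre-incubated with enzyme 10 min, then with ATP/UTP 10 min.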

Row | SMILES | IC50 [nM]
1 | CCOc1cncc(-c2ccc(C(=O)N[C@H](COC)c3cc(NS(=O)(=O)C4CC4)ccn3)cc2)n1 [I-280, (S)-N-(1-(4-(cyclopropanesulfonamido)pyridin-2-yl)-2-methoxyethyl)-4-(6-ethoxypyrazin-2-yl)benzamide] | 25 to 50
2 | CCOc1cncc(-c2ccc(C(=O)N[C@@H](COC)c3cc(NS(=O)(=O)C4CC4)ccn3)c(F)c2)n1 [I-282, (R)-N-(1-(4-(cyclopropanesulfonamido)pyridin-2-yl)-2-methoxyethyl)-4-(6-ethoxypyrazin-2-yl)-2-fluorobenzamide] | 25 to 50
3 | CCOc1cncc(-c2ccc(C(=O)N[C@H](COC)c3cc(NS(=O)(=O)C4CC4)ccn3)c(F)c2)n1 [I-283, (S)-N-(1-(4-(cyclopropanesulfonamido)pyridin-2-yl)-2-methoxyethyl)-4-(6-ethoxypyrazin-2-yl)-2-fluorobenzamide] | 50 to 100
4 | COC[C@H](NC(=O)c1ccc(-c2cnn3ccc(Cl)cc23)cc1F)c1cc(NS(=O)(=O)C2CC2)ccn1 [I-284, (R)-4-(5-chloropyrazolo[1,5-a]pyridin-3-yl)-N-(1-(4-(cyclopropanesulfonamido)pyridin-2-yl)-2-methoxyethyl)-2-fluorobenzamide] | > 100
5 | COC[C@@H](NC(=O)c1ccc(-c2cnn3ccc(Cl)cc23)cc1F)c1cc(NS(=O)(=O)C2CC2)ccn1 [I-285, (S)-4-(5-chloropyrazolo[1,5-a]pyridin-3-yl)-N-(1-(4-(cyclopropanesulfonamido)pyridin-2-yl)-2-methoxyethyl)-2-fluorobenzamide] | 50 to 100
6 | CCOc1cncc(-c2cnc(C(=O)N[C@H](c3cccc(NS(=O)(=O)C(F)F)c3)C(C)(C)O)s2)n1 [I-291, (R)-N-(1-(3-((difluoromethyl)sulfonamido)phenyl)-2-hydroxy-2-methylpropyl)-5-(6-ethoxypyrazin-2-yl)thiazole-2-carboxamide] | 5 to 25
7 | CCOc1cncc(-c2cnc(C(=O)N[C@H](COC)c3cccc(NS(=O)(=O)C(F)F)c3)s2)n1 [I-292, (S)-N-(1-(3-((difluoromethyl)sulfonamido)phenyl)-2-methoxyethyl)-5-(6-ethoxypyrazin-2-yl)thiazole-2-carboxamide] | 5 to 25
8 | CCOc1cncc(-c2cnc(C(=O)N[C@@H](COC)c3cccc(NS(=O)(=O)C(F)F)c3)s2)n1 [I-293, (R)-N-(1-(3-((difluoromethyl)sulfonamido)phenyl)-2-methoxyethyl)-5-(6-ethoxypyrazin-2-yl)thiazole-2-carboxamide] | 5 to 25

More lines, now with the values ahead:

Row | IC50 [nM] | SMILES
9 | 5 to 25 | CCOc1cncc(-c2cnc(C(=O)N[C@@H](COC)c3ccnc(NS(=O)(=O)C4CC4)n3)s2)n1 [I-281, (R)-N-(1-(2-(cyclopropanesulfonamido)pyrimidin-4-yl)-2-methoxyethyl)-5-(6-ethoxypyrazin-2-yl)thiazole-2-carboxamide]
10 | 5 to 25 | CCOc1cncc(-c2cnc(C(=O)N[C@H](c3cccc(NS(=O)(=O)C(F)F)c3)[C@@H](C)O)s2)n1 [I-286, N-((1R,2R)-1-(3-((difluoromethyl)sulfonamido)phenyl)-2-hydroxypropyl)-5-(6-ethoxypyrazin-2-yl)thiazole-2-carboxamide]
11 | 5 to 25 | CCOc1cncc(-c2cnc(C(=O)N[C@@H](c3cccc(NS(=O)(=O)C(F)F)c3)[C@@H](C)O)s2)n1 [I-287, N-((1S,2R)-1-(3-((difluoromethyl)sulfonamido)phenyl)-2-hydroxypropyl)-5-(6-ethoxypyrazin-2-yl)thiazole-2-carboxamide]
12 | 5 to 25 | CCOc1cncc(-c2cnc(C(=O)N[C@@H](c3cccc(NS(=O)(=O)C(F)F)c3)[C@H](C)O)s2)n1 [I-288, N-((1S,2S)-1-(3-((difluoromethyl)sulfonamido)phenyl)-2-hydroxypropyl)-5-(6-ethoxypyrazin-2-yl)thiazole-2-carboxamide]
13 | 5 to 25 | CCOc1cncc(-c2cnc(C(=O)N[C@H](c3cccc(NS(=O)(=O)C(F)F)c3)[C@H](C)O)s2)n1 [I-289, N-((1R,2S)-1-(3-((difluoromethyl)sulfonamido)phenyl)-2-hydroxypropyl)-5-(6-ethoxypyrazin-2-yl)thiazole-2-carboxamide]
14 | 5 to 25 | CCOc1cncc(-c2cnc(C(=O)N[C@@H](c3cccc(NS(=O)(=O)C(F)F)c3)C(C)(C)O)s2)n1 [I-290, (S)-N-(1-(3-((difluoromethyl)sulfonamido)phenyl)-2-hydroxy-2-methylpropyl)-5-(6-ethoxypyrazin-2-yl)thiazole-2-carboxamide]
